Results published in patent publication US20170348306A1, “METHODS OF TREATING CANCER” (GLAXOSMITHKLINE LLC, priority 2011, published 2017).
Where two headings read alike, the source gives them in different places.

Assays:
EZH1 = EZH1 (Homo sapiens, UniProt Q92800); experiment: Inhibition of EZH1 methyltransferase activity; type: biochemical; details: read-out: Ki app
SU-DHL-10 = experiment: Cell proliferation assay (6 days, CellTiter-Glo); type: cell-based; details: Homo sapiens, SU-DHL10, 144 h, DLBCL, EZH2 Y641F (HET), read-out: AVERAGE GROWTH IC50
Source text: (§1) Thus, Example 22 and Table 6 better reflect the inhibition of HZH2 inhibitors on cell lines, e.g. the lymphoma cell lines. DLBCL cell lines were the most sensitive to EZH2 inhibition (FIG. 11a). […] Evaluation of GSK126 in additional lymphoma cell lines and extensive genomic and epigenomic characterization will be required to fully elucidate the determinants of sensitivity among lymphoma subtypes.
(§2) Biochemical assays utilized the 5-member PRC2 complex (human Flag-EZH2, EED, SUZ12, AEBP2, RbAp48) containing either WT or mutant EZH2, [^3H-]SAM and the indicated peptide substrate; reactions were incubated for 30 minutes. Global histone modification levels were determined by ELISA or western blot methods using antibodies specific for total histone H3, H3K27me1, H3K27me2, or H3K27me3. Cell proliferation and Caspase-3/7 activity were assessed using CellTiter-Glo and Caspase-Glo 3/7 (Promega), respectively. Gene expression profiling was conducted using Affymetrix Human Genome U133 Plus 2.0 microarrays. Differentially-expressed probe sets were determined by fitting the data to a linear model using the limma statistical package (http://www.bioconductor.org) and carrying out pair-wise contrasts of treated versus control. Significant probe sets were filtered for detection (log2 signal threshold of 8), an average fold-change >2 or <−2, or >1.5 or <−1.5, where indicated, with p-values adjusted for multiple testing correction by FDR (Benjamini Hochberg)<0.1. H3K27me3 ChIP reads were aligned using Bowtie (56). H3K27me3 enrichment peaks were identified using SICER (57) with optimized parameters. A custom PERL script was utilized to quantify the average basal H3K27me3 ChIP-seq tag density across gene sets. All in vivo studies were conducted after review by the Institutional Animal Care and Use Committee at GSK and in accordance with the GSK Policy on the Care, Welfare and Treatment of Laboratory Animals. GSK126 and vehicle were administered to mice intraperitoneally. Two-tailed t-tests were conducted assuming two samples of equal variance.
(§3) The optimal cell seeding was determined empirically for all cell lines by examining the growth of a wide range of seeding densities in a 384-well format to identify conditions that permitted proliferation for 6 days. […] Plates were incubated for 6 days at 37° C. in 5% CO2. Cells were then lysed with CellTiter-Glo (Promega) and chemiluminescent signal was detected with a TECAN Safire2 microplate reader. In addition, an untreated plate of cells was harvested at the time of compound addition (T0) to quantify the starting number of cells. CTG values obtained after the 6 day treatment were expressed as a percent of the T0 value and plotted against compound concentration.

WSU-FSCCL = experiment: Cell proliferation assay (6 days, CellTiter-Glo); type: cell-based; details: Homo sapiens, 144 h, FL, EZH2 D185H (HET), read-out: AVERAGE GROWTH IC50
Source text: as §1, §2, §3

WILL-1 = experiment: Cell proliferation assay (6 days, CellTiter-Glo); type: cell-based; details: Homo sapiens, 144 h, DLBCL, EZH2 D185H (HET), read-out: AVERAGE GROWTH IC50
Source text: as §1, §2, §3

[1] = test system: B-cell lymphoma cell lines; experiment: Cell proliferation assay (6 days, CellTiter-Glo), panel; type: cell-based; details: Homo sapiens, 144 h, read-out: growth IC50
Source text: as §1
Biochemical assays utilized the 5-member PRC2 complex (human Flag-EZH2, EED, SUZ12, AEBP2, RbAp48) containing either WT or mutant EZH2, [^3H-]SAM and the indicated peptide substrate; reactions were incubated for 30 minutes. Global histone modification levels were determined by ELISA or western blot methods using antibodies specific for total histone H3, H3K27me1, H3K27me2, or H3K27me3. Cell proliferation and Caspase-3/7 activity were assessed using CellTiter-Glo and Caspase-Glo 3/7 (Promega), respectively. Gene expression profiling was conducted using Affymetrix Human Genome U133 Plus 2.0 microarrays. Differentially-expressed probe sets were determined by fitting the data to a linear model using the limma statistical package (http://www.bioconductor.org) and carrying out pair-wise contrasts of treated versus control. […] H3K27me3 ChIP reads were aligned using Bowtie (56). […] A custom PERL script was utilized to quantify the average basal H3K27me3 ChIP-seq tag density across gene sets. […]

DLBCL cell lines = experiment: Gene expression profiling (Affymetrix Human Genome U133 Plus 2.0); type: cell-based; details: 72 hours
Protocol: as §2
Cells (2×10^5/well) were seeded into six-well tissue culture plates in the appropriate cell culture media 24 hours before treatment. […] Cells were collected into Trizol reagent (Invitrogen) and total RNA was isolated via phenol:chloroform extraction and the RNeasy kit (Qiagen) according to the manufacturer's instructions. Total RNA was labeled and hybridized to Affymetrix Human Genome U133 Plus 2.0 oligonucleotide microarrays arrays according to the manufacturer's instructions (Affymetrix, Santa Clara, Calif., USA) at Expression Analysis (Durham, N.C.). […] Principal component and correlation analysis were used to confirm data reproducibility (FIG. 16).
CEL files, corresponding to individual samples, were processed by the Micro Array Suite 5.0 (MASS) algorithm (http://www.affyrmetrix.com/support/index.affx) where signal values were scaled to a target intensity of 500 and log2 transformed. Differentially expressed probe sets were determined by fitting the data to a linear model and carrying out pair-wise contrasts of treated versus control. […]

Pfeiffer xenografts = experiment: Subcutaneous tumor xenograft efficacy study; type: in vivo, mice; details: daily 50 mg/kg, intraperitoneal
Protocol: as §2
(§4) All studies were conducted after review by the Institutional Animal Care and Use Committee at GSK and in accordance with the GSK Policy on the Care, Welfare and Treatment of Laboratory Animals. […] Pfeiffer or KARPAS-422 cells (1×10^7) in 100% matrigel (BD Biosciences) were implanted subcutaneously in female beige SCID mice. Tumors were measured with calipers, block randomized according to tumor size into treatment groups. […] Mice were weighed and tumors measured with calipers twice weekly. For mouse pharmacokinetic studies, tumor and blood samples were harvested from euthanized mice at the indicated time. […] For pharmacodynamic studies, a portion of each tumor was frozen for H3K27me3/H3 ELISAs or placed in RNAlater (Ambion) for RNA isolation. For peripheral blood analyses, blood was harvested via cardiac puncture from euthanized, immunocompetent CD-1 mice (3 mice/group) on day 18. Blood was immediately placed into a Microtainer EDTA tube (BD) and gently mixed by inverting. A complete blood count analysis was conducted using the Advia 2120 hematology analyzer (Siemens Medical Solutions) using multi-species software as per manufacturer's instructions.

KARPAS-422 xenografts = experiment: Subcutaneous tumor xenograft efficacy study; type: in vivo, mice; details: for tumor response upon cessation of dosing / tumor growth: KARPAS-422 xenografts
Protocol: as §2, §4

EZH1, sequence (Q92800 whole entry): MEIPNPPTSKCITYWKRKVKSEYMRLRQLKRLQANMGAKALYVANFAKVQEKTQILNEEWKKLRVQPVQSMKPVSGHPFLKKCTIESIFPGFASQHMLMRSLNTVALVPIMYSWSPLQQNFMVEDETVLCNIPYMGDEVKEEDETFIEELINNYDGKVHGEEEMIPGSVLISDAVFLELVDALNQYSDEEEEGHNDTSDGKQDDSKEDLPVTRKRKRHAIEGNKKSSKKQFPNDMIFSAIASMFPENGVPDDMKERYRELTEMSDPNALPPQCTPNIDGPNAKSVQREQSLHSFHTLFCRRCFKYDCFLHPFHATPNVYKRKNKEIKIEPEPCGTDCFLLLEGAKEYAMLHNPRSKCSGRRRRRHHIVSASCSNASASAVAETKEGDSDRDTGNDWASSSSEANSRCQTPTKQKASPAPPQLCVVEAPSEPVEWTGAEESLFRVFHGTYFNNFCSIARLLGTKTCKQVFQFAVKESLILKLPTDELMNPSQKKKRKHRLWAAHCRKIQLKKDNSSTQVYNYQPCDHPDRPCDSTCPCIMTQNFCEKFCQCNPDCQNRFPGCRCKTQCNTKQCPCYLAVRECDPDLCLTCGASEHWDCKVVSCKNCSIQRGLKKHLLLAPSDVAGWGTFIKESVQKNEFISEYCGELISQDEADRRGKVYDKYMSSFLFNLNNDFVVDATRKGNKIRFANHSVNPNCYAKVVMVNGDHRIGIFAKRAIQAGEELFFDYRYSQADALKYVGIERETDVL
EZH1, sequence (O75530 whole entry partner): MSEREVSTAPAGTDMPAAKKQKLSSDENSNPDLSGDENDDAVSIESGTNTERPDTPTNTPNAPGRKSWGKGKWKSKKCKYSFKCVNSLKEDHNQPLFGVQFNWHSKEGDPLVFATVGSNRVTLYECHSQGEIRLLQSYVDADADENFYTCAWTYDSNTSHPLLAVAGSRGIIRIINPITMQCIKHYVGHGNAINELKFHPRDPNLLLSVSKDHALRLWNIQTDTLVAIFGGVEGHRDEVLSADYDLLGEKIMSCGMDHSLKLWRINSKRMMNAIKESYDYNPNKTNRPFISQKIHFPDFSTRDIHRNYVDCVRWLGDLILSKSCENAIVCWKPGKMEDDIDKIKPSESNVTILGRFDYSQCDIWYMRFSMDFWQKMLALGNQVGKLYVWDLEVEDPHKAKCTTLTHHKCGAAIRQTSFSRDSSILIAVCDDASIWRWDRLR
EZH1, sequence (Q15022 whole entry partner): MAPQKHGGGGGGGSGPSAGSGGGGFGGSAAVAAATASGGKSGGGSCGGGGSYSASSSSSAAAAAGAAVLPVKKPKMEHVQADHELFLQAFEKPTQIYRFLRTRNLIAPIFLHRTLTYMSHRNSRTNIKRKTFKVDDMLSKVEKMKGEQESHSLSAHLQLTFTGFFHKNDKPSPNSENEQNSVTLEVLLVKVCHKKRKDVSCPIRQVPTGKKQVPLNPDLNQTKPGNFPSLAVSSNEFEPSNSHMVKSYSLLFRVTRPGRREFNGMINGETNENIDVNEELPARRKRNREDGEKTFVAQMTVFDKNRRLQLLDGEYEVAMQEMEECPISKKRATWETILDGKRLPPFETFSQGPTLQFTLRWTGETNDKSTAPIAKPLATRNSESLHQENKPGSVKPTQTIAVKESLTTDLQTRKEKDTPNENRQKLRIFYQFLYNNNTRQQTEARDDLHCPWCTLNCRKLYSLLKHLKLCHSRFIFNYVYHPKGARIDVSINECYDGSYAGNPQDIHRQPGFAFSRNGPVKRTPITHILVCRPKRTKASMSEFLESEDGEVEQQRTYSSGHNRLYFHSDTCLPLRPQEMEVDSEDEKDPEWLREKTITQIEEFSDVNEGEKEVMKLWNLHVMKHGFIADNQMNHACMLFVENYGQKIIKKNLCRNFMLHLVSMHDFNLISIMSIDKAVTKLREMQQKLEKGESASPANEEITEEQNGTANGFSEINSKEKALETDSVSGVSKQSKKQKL

SMILES: CC[C@H](C)n1cc(C)c2c(C(=O)NCc3c(C)cc(C)[nH]c3=O)cc(-c3ccc(N4CCNCC4)nc3)cc21 [GSK126]
- Ki (EZH1): 89 nM
- IC50 (SU-DHL-10): 448 nM
- IC50 (WSU-FSCCL): 12000 nM
- IC50 (WILL-1): 5530 nM
- IC50 ([1]; Burkitt (BL) and Hodgkin's (HL) lymphoma cell lines, with the exception of Jiyoye): > 1300 nM
- IC50 ([1]; B-cell, six of the seven most sensitive DLBCL cell lines, harboring Y641N, Y641F, or A677G EZH2 mutations): 28 to 861 nM
- up-regulated probe sets common to at least 4 of 5 mutant cell lines (DLBCL cell lines; Pfeiffer, KARPAS-422, WSU-DLCL2, SU-DHL-10, SU-DHL-6, 500 nM): 35 probe sets
- down-regulated probe sets (DLBCL cell lines; Toledo, 2 μM GSK126): 10 probe sets
- up-regulated probe sets (DLBCL cell lines; Toledo, 2 μM GSK126): 23 probe sets
- share of up-regulated among gene expression changes (DLBCL cell lines; five most sensitive EZH2 mutant cell lines, 500 nM): 69-95%
- tumor growth (Pfeiffer xenografts): complete tumor growth inhibition
- tumor growth inhibition (KARPAS-422 xenografts; KARPAS-422 xenografts with large tumors, intermittent dosing, weekly or with 1 week drug holiday, all schedules): 91-100%
- tumor response upon cessation of dosing (KARPAS-422 xenografts; 50 mg/kg QD group): tumor stasis
- tumor response upon cessation of dosing (KARPAS-422 xenografts; 150 mg/kg QD group): complete tumor eradication
- tumor response upon cessation of dosing (KARPAS-422 xenografts; 300 mg/kg twice/week group): complete tumor eradication
- tumor growth (KARPAS-422 xenografts; daily 50 mg/kg, intraperitoneal): complete tumor growth inhibition
- tumor growth (KARPAS-422 xenografts; higher dosing regimens): marked tumor regression
- survival of mice (KARPAS-422 xenografts; mice bearing KARPAS-422 tumors): statistically significant increased survival
